From ChEMBL document CHEMBL3044631, “Synthesis of 2-[4,5-dimethyl-1-(phenylamino)-1H-imidazol-2-ylthio]-N-(thiazole-2-yl)acetamide derivatives and their anticancer activities” (2013)

What was measured:
Type in all cases: functional
[1] = tested on: SN12C; assay: Anticancer activity against Homo sapiens (human) SN12C cells after 48 hr by SRB assay
[2] = tested on: MDA-MB-468; assay: Anticancer activity against Homo sapiens (human) MDA-MB-468 cells after 48 hr by SRB assay; settings: MDA-MB-468, 48 h
[3] = tested on: T47D; assay: Anticancer activity against Homo sapiens (human) T47D cells after 48 hr by SRB assay
[4] = tested on: K562; assay: Anticancer activity against Homo sapiens (human) K562 cells after 48 hr by SRB assay; settings: K562, 48 h
[5] = tested on: NCI-H23; assay: Anticancer activity against Homo sapiens (human) NCI-H23 cells after 48 hr by SRB assay; settings: NCI-H23, 48 h
[6] = tested on: Malme-3M; assay: Anticancer activity against Homo sapiens (human) MALME-3M cells after 48 hr by SRB assay
[7] = tested on: MOLT-4; assay: Anticancer activity against Homo sapiens (human) MOLT4 cells after 48 hr by SRB assay; settings: MOLT-4, 48 h
[8] = tested on: SF-539; assay: Anticancer activity against Homo sapiens (human) SF539 cells after 48 hr by SRB assay; settings: SF-539, 48 h
[9] = tested on: U-251; assay: Anticancer activity against Homo sapiens (human) U251 cells after 48 hr by SRB assay; settings: U-251, 48 h
[10] = tested on: COLO 205; assay: Anticancer activity against Homo sapiens (human) COLO205 cells after 48 hr by SRB assay; settings: COLO 205, 48 h
[11] = tested on: A498; assay: Anticancer activity against Homo sapiens (human) A498 cells after 48 hr by SRB assay; settings: A498, 48 h
[12] = tested on: CAKI-1; assay: Anticancer activity against Homo sapiens (human) CAKI-1 cells after 48 hr by SRB assay; settings: CAKI-1, 48 h
[13] = tested on: OVCAR-4; assay: Anticancer activity against Homo sapiens (human) OVCAR4 cells after 48 hr by SRB assay; settings: OVCAR-4, 48 h
[14] = tested on: NCI-H460; assay: Anticancer activity against Homo sapiens (human) NCI-H460 cells after 48 hr by SRB assay; settings: NCI-H460, 48 h
[15] = tested on: SK-OV-3; assay: Anticancer activity against Homo sapiens (human) SKOV3 cells after 48 hr by SRB assay; settings: SK-OV-3, 48 h
[16] = tested on: HT-29; assay: Anticancer activity against Homo sapiens (human) HT-29 cells after 48 hr by SRB assay; settings: HT-29, 48 h
[17] = tested on: HL-60(TB); assay: Anticancer activity against Homo sapiens (human) HL-60(TB) cells after 48 hr by SRB assay; settings: HL-60, 48 h
[18] = tested on: SK-MEL-5; assay: Anticancer activity against Homo sapiens (human) SK-MEL-5 cells after 48 hr by SRB assay; settings: SK-MEL-5, 48 h
[19] = tested on: OVCAR-5; assay: Anticancer activity against Homo sapiens (human) OVCAR5 cells after 48 hr by SRB assay; settings: OVCAR-5, 48 h
[20] = tested on: BT-549; assay: Anticancer activity against Homo sapiens (human) BT549 cells after 48 hr by SRB assay; settings: BT-549, 48 h
[21] = tested on: SNB-75; assay: Anticancer activity against Homo sapiens (human) SNB75 cells after 48 hr by SRB assay; settings: SNB-75, 48 h
[22] = tested on: TK-10; assay: Anticancer activity against Homo sapiens (human) TK10 cells after 48 hr by SRB assay; settings: TK-10, 48 h
[23] = tested on: HOP-62; assay: Anticancer activity against Homo sapiens (human) HOP62 cells after 48 hr by SRB assay; settings: HOP-62, 48 h
[24] = tested on: HCT-15; assay: Anticancer activity against Homo sapiens (human) HCT15 cells after 48 hr by SRB assay; settings: HCT-15, 48 h
[25] = tested on: HCT-116; assay: Anticancer activity against Homo sapiens (human) HCT116 cells after 48 hr by SRB assay; settings: HCT-116, 48 h
[26] = tested on: ACHN; assay: Anticancer activity against Homo sapiens (human) ACHN cells after 48 hr by SRB assay
[27] = tested on: OVCAR-3; assay: Anticancer activity against Homo sapiens (human) OVCAR3 cells after 48 hr by SRB assay; settings: OVCAR-3, 48 h
[28] = tested on: UACC-257; assay: Anticancer activity against Homo sapiens (human) UACC257 cells after 48 hr by SRB assay; settings: UACC-257, 48 h
[29] = tested on: LOX IMVI; assay: Anticancer activity against Homo sapiens (human) LOXIMVI cells after 48 hr by SRB assay
[30] = tested on: SNB-19; assay: Anticancer activity against Homo sapiens (human) SNB19 cells after 48 hr by SRB assay; settings: SNB-19, 48 h
[31] = read-out: LC50 (the source's name)

For COc1ccc(Nn2c(SCC(=O)Nc3nc(-c4ccc(Cl)cc4)cs3)nc(C)c2C)cc1, the GI50 [1] was 2.3 µM, the LC50 (concentration killing 50% of cells) [1] was > 100 µM and the TGI [1] was 7.52 µM. For the same molecule, the GI50 [2] was 0.57 µM, the LC50 [2] was > 100 µM and the TGI [2] was 7.73 µM. For the same molecule, the GI50 [3] was 1.23 µM, the TGI [3] was 8.04 µM and the CC50 [3, 31] was > 100 µM. For the same molecule, the GI50 [4] was 1.58 µM, the TGI [4] was > 100 µM and the CC50 [4, 31] was > 100 µM. The GI50 [5] was 1.53 µM, the TGI [5] was > 100 µM and the CC50 [5, 31] was > 100 µM. For the same molecule, the GI50 [6] was 2.9 µM, the TGI [6] was > 100 µM and the CC50 [6, 31] was > 100 µM. For the same molecule, the GI50 [7] was 2.54 µM, the LC50 (50% lethal concentration) [7] was > 100 µM and the TGI [7] was > 100 µM. For the same molecule, the GI50 [8] was 4.15 µM, the LC50 (concentration killing 50% of cells) [8] was > 100 µM and the TGI [8] was > 100 µM. For the same molecule, the GI50 [9] was 4.03 µM, the LC50 (lethal concentration, 50% net cell kill) [9] was > 100 µM and the TGI [9] was > 100 µM. It also gave a GI50 [10] of 1.94 µM, a TGI [10] of 3.55 µM and a CC50 [10, 31] of 6.51 µM. For the same molecule, the GI50 [11] was 2.22 µM, the LC50 [11] was > 100 µM and the TGI [11] was 56.5 µM. For the same molecule, the GI50 [12] was 2.16 µM, the LC50 (concentration killing 50% of cells) [12] was > 100 µM and the TGI [12] was > 100 µM. For the same molecule, the GI50 [13] was 4.02 µM, the LC50 (concentration killing 50% of starting cells) [13] was > 100 µM and the TGI [13] was > 100 µM. For the same molecule, the GI50 [14] was 2.69 µM, the LC50 [14] was > 100 µM and the TGI [14] was 10.6 µM. The GI50 [15] was 4.24 µM, the LC50 (50% lethal concentration) [15] was > 100 µM and the TGI [15] was > 100 µM. For the same molecule, the GI50 [16] was 4.61 µM, the LC50 [16] was > 100 µM and the TGI [16] was 50.4 µM. The GI50 [17] was > 100 µM, the TGI [17] was 59.1 µM and the CC50 [17, 31] was > 100 µM. The GI50 [18] was 1.41 µM, the LC50 (concentration killing 50% of cells) [18] was 7.96 µM and the TGI [18] was 3.35 µM. For the same molecule, the GI50 [19] was > 100 µM, the LC50 [19] was > 100 µM and the TGI [19] was > 100 µM. The GI50 [20] was 6.46 µM, the LC50 [20] was > 100 µM and the TGI [20] was 82 µM. The GI50 [21] was 4.8 µM, the LC50 [21] was > 100 µM and the TGI [21] was > 100 µM. The GI50 [22] was 14.8 µM, the LC50 (50% lethal concentration) [22] was > 100 µM and the TGI [22] was 80.9 µM. For the same molecule, the LC50 [23] was > 100 µM, the GI50 [24] was 4.79 µM and the TGI [24] was > 100 µM. The CC50 [24, 31] was > 100 µM, the GI50 [25] was 2.12 µM and the LC50 [25] was > 100 µM. The TGI [25] was 14.1 µM, the GI50 [26] was 2.27 µM and the LC50 (concentration killing 50% of cells) [26] was > 100 µM. For the same molecule, the TGI [26] was 8.76 µM, the GI50 [27] was 3.13 µM and the LC50 (50% lethal concentration) [27] was > 100 µM. The TGI [27] was 24.2 µM, the GI50 [28] was 2.97 µM and the LC50 [28] was > 100 µM. For the same molecule, the TGI [28] was 41.1 µM, the GI50 [29] was 3.02 µM and the LC50 (50% lethal concentration) [29] was > 100 µM. The TGI [29] was 44.2 µM, the GI50 [30] was 6.2 µM and the LC50 [30] was > 100 µM. For the same molecule, the TGI [30] was > 100 µM.
